Converted amounts (≈) assume the structure as drawn. Read-outs that look alike come from different tables or passages of the source.
Tests used:
[1] = test system: E. coli ELZ4251 (MDR clinical isolate); assay: Antibacterial activity, MIC, MDR E. coli ELZ4251; type: cell-based, Escherichia coli; details: Escherichia coli, read-out: MIC ELZ4251
[2] = test system: control Gram-negative E. coli 25922 strain; assay: Antibacterial activity, microbroth dilution MIC, E. coli 25922; type: cell-based, Escherichia coli; details: Escherichia coli; E. coli 25922, microbroth dilution; read-out: MIC, 25922
[3] = test system: Klebsiella pneumoniae (K. pneumoniae) 35657; assay: Antibacterial activity, MIC, K. pneumoniae 35657; type: cell-based; details: Klebsiella pneumoniae
[4] = test system: Gram-positive Staphylococcus aureus (S. aureus) 29213; assay: Antibacterial activity, microbroth dilution MIC, S. aureus 29213; type: cell-based; details: Staphylococcus aureus; S. aureus 29213, microbroth dilution; read-out: MIC, 29213
[5] = test system: Pseudomonas aeruginosa (P. aeruginosa) 27853; assay: Antibacterial activity, MIC, P. aeruginosa 27853; type: cell-based; details: Pseudomonas aeruginosa, read-out: MIC 27853
Description: (§1) The antibacterial activity from a microbroth dilution method may be presented as the minimum inhibitory concentration (MIC in […]). The MIC value is the lowest concentration of a drug which prevents macroscopically visible bacterial growth under test conditions.
Antibacterial activity of test compounds against the Gram-negative bacterium Pseudomonas aeruginosa (P. aeruginosa) 27853 is shown in Table 5.

[6] = test system: E. coli ELZ4000 (MDR clinical isolate); assay: Antibacterial activity, MIC, MDR E. coli ELZ4000; type: cell-based, Escherichia coli; details: Escherichia coli, read-out: MIC ELZ4000
[7] = test system: quinolone resistant E. coli LZ3111; assay: Antibacterial activity, MIC, quinolone resistant E. coli LZ3111; type: cell-based, Escherichia coli; details: Escherichia coli, read-out: MIC, LZ3111
Description: as §1
Mutations in these regions are known to confer a high level resistance to the quinolone class of antibiotics.

[8] = test system: super sensitive Gram-negative Escherichia coli (E. coli) BAS849; assay: Antibacterial activity, microbroth dilution MIC, E. coli BAS849; type: cell-based; details: Escherichia coli, read-out: MIC, BAS849
[9] = test system: Haemophilus influenzae (H. influenzae) 49247; assay: Antibacterial activity, MIC, H. influenzae 49247; type: cell-based; details: Haemophilus influenzae, read-out: MIC 49247
In short: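 A microbroth dilution method gave the minimum inhibitory concentration for each compound against H. influenzae 49247, a Gram-negative bacterium. MIC means the smallest concentration of drug at which no macroscopically visible bacterial growth appears under the conditions of the test.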

[10] = test system: Acinetobacter baumannii (A. baumannii) BAA747; assay: Antibacterial activity, MIC, A. baumannii BAA747; type: cell-based; details: Acinetobacter baumannii
[11] = test system: Neisseria meningitidis (N. meningitidis) 13090; assay: Antibacterial activity, MIC, N. meningitidis 13090; type: cell-based; details: Neisseria meningitidis, read-out: MIC 13090
[12] = test system: Moraxella catarrhalis (M. catarrhalis) 25238; assay: Antibacterial activity, MIC, M. catarrhalis 25238; type: cell-based; details: Moraxella catarrhalis, read-out: MIC 25238
[13] = E. coli ELZ4251, MDR clinical isolate
[14] = E. coli ELZ4000, MDR clinical isolate
[15] = E. coli BAS849, microbroth dilution

| Compound | MIC [1, 13] | MIC [2] | MIC [3] | MIC [4] | MIC ([5]; P. aeruginosa 27853) | MIC [6, 14] | MIC [7] | MIC [8, 15] | MIC [1] | MIC [9] | MIC ([10]; BAA747, read-out: MIC BAA747) | MIC [5] | MIC [6] | MIC [11] | MIC [8] | MIC [12] | MIC ([9]; H. influenzae 49247) | MIC ([11]; N. meningitidis 13090) | MIC ([12]; M. catarrhalis 25238) | MIC ([10]; A. baumannii BAA747, read-out: MIC BAA747) |
| --- | --- | --- | --- | --- | --- | --- | --- | --- | --- | --- | --- | --- | --- | --- | --- | --- | --- | --- | --- | --- |
| Cc1cc(C(=O)O)c(=O)[nH]c1-c1ccc(N(C)C)cc1 [Cpd 4, 6-[4-(dimethylamino)phenyl]-5-methyl-2-oxo-1,2-dihydropyridine-3-carboxylic acid] | 12.5 to 150 µg/mL (≈ 45.9 to 551 µM) | 12.5 to 150 µg/mL (≈ 45.9 to 551 µM) | 3.5 to 12.5 µg/mL (≈ 12.9 to 45.9 µM) | 12.5 to 150 µg/mL (≈ 45.9 to 551 µM) | 12.5 to 150 µg/mL (≈ 45.9 to 551 µM) | 12.5 to 150 µg/mL (≈ 45.9 to 551 µM) | 12.5 to 150 µg/mL (≈ 45.9 to 551 µM) | < 1 µg/mL |  |  |  |  |  |  |  |  |  |  |  |  |
| CCc1cc(C(=O)O)c(=O)[nH]c1-c1ccc(N2CCNCC2)c(F)c1.O=C(O)C(F)(F)F [Cpd 92, 5-ethyl-6-[3-fluoro-4-(piperazin-1-yl)phenyl]-2-oxo-1,2-dihydropyridine-3-carboxylic acid trifluoroacetate] |  | 12.5 to 150 µg/mL |  | 12.5 to 150 µg/mL |  |  | 12.5 to 150 µg/mL |  | 12.5 to 150 µg/mL | 1 to 3.5 µg/mL | 12.5 to 150 µg/mL | 12.5 to 150 µg/mL | 12.5 to 150 µg/mL | 3.5 to 12.5 µg/mL | 12.5 to 150 µg/mL | 12.5 to 150 µg/mL |  |  |  |  |
| CC(C)c1cc(C(=O)O)c(=O)[nH]c1-c1ccc(N(C)C)cc1 [Cpd 95, 6-[4-(dimethylamino)phenyl]-2-oxo-5-(propan-2-yl)-1,2-dihydropyridine-3-carboxylic acid] | 12.5 to 150 µg/mL (≈ 41.6 to 499 µM) | 3.5 to 12.5 µg/mL (≈ 11.7 to 41.6 µM) | 12.5 to 150 µg/mL (≈ 41.6 to 499 µM) | 12.5 to 150 µg/mL (≈ 41.6 to 499 µM) | 12.5 to 150 µg/mL (≈ 41.6 to 499 µM) | 12.5 to 150 µg/mL (≈ 41.6 to 499 µM) | 12.5 to 150 µg/mL (≈ 41.6 to 499 µM) | < 1 µg/mL |  |  |  |  |  |  |  |  | < 1 µg/mL | < 1 µg/mL | < 1 µg/mL |  |
| CCc1cc(C(=O)O)c(=O)[nH]c1-c1ccc(N(CC)CC)cc1 [Cpd 97, 6-[4-(diethylamino)phenyl]-5-ethyl-2-oxo-1,2-dihydropyridine-3-carboxylic acid] | 12.5 to 150 µg/mL (≈ 39.8 to 477 µM) | 3.5 to 12.5 µg/mL (≈ 11.1 to 39.8 µM) | 3.5 to 12.5 µg/mL (≈ 11.1 to 39.8 µM) | 12.5 to 150 µg/mL (≈ 39.8 to 477 µM) | 12.5 to 150 µg/mL (≈ 39.8 to 477 µM) | 12.5 to 150 µg/mL (≈ 39.8 to 477 µM) | 12.5 to 150 µg/mL (≈ 39.8 to 477 µM) | < 1 µg/mL |  |  |  |  |  |  |  |  | < 1 µg/mL | < 1 µg/mL | < 1 µg/mL |  |
| CCc1cc(C(=O)O)c(=O)[nH]c1-c1ccc(N2CCCC2)cc1 [Cpd 99, 5-ethyl-2-oxo-6-[4-(pyrrolidin-1-yl)phenyl]-1,2-dihydropyridine-3-carboxylic acid] | 12.5 to 150 µg/mL (≈ 40 to 480 µM) | < 1 µg/mL | 3.5 to 12.5 µg/mL (≈ 11.2 to 40 µM) | 1 to 3.5 µg/mL (≈ 3.2 to 11.2 µM) | 3.5 to 12.5 µg/mL (≈ 11.2 to 40 µM) | 12.5 to 150 µg/mL (≈ 40 to 480 µM) | 12.5 to 150 µg/mL (≈ 40 to 480 µM) | < 1 µg/mL |  |  |  |  |  |  |  |  | < 1 µg/mL | < 1 µg/mL | < 1 µg/mL |  |
| CCc1c(-c2ccc(N3CCCC3)cc2)[nH]c(=O)c(C(=O)O)c1O [Cpd 100, 5-ethyl-4-hydroxy-2-oxo-6-[4-(pyrrolidin-1-yl)phenyl]-1,2-dihydropyridine-3-carboxylic acid] | 12.5 to 150 µg/mL (≈ 38.1 to 457 µM) | 3.5 to 12.5 µg/mL (≈ 10.7 to 38.1 µM) | 12.5 to 150 µg/mL (≈ 38.1 to 457 µM) | 1 to 3.5 µg/mL (≈ 3.05 to 10.7 µM) | 12.5 to 150 µg/mL (≈ 38.1 to 457 µM) | 12.5 to 150 µg/mL (≈ 38.1 to 457 µM) | 12.5 to 150 µg/mL (≈ 38.1 to 457 µM) | < 1 µg/mL |  |  |  |  |  |  |  |  | < 1 µg/mL | < 1 µg/mL | < 1 µg/mL |  |
| CCc1cc(C(=O)O)c(=O)[nH]c1-c1ccc(-n2cccc2)cc1 [Cpd 101, 5-ethyl-2-oxo-6-[4-(1H-pyrrol-1-yl)phenyl]-1,2-dihydropyridine-3-carboxylic acid] | 12.5 to 150 µg/mL (≈ 40.5 to 486 µM) | 12.5 to 150 µg/mL (≈ 40.5 to 486 µM) | 3.5 to 12.5 µg/mL (≈ 11.4 to 40.5 µM) | 12.5 to 150 µg/mL (≈ 40.5 to 486 µM) | 12.5 to 150 µg/mL (≈ 40.5 to 486 µM) | 12.5 to 150 µg/mL (≈ 40.5 to 486 µM) | 12.5 to 150 µg/mL (≈ 40.5 to 486 µM) | < 1 µg/mL |  |  |  |  |  |  |  |  | < 1 µg/mL | < 1 µg/mL | < 1 µg/mL |  |
| CCc1cc(C(=O)O)c(=O)[nH]c1-c1ccc(N2Cc3cccnc3C2)cc1 [Cpd 192, 6-[4-(5,7-dihydro-6H-pyrrolo[3,4-b]pyridin-6-yl)phenyl]-5-ethyl-2-oxo-1,2-dihydropyridine-3-carboxylic acid] |  | 3.5 to 12.5 µg/mL (≈ 9.68 to 34.6 µM) | 12.5 to 150 µg/mL (≈ 34.6 to 415 µM) | 3.5 to 12.5 µg/mL (≈ 9.68 to 34.6 µM) | 12.5 to 150 µg/mL (≈ 34.6 to 415 µM) |  | 12.5 to 150 µg/mL (≈ 34.6 to 415 µM) | < 1 µg/mL |  |  |  |  |  |  |  |  |  |  |  | 12.5 to 150 µg/mL (≈ 34.6 to 415 µM) |
